Source: patent US20110034466A1, “NOVEL FIVE-MEMBERED RING COMPOUND” (priority 2008, published 2011)

What was measured:
rat lung membrane SMBS = assay: Receptor-binding assessment test using rat lung membranes ([125I]-iodocyanopindolol ligand binding assay); conditions: 1 μM test compound; ratio of inhibiting specific binding of [125I]-iodocyanopindolol to rat lung membrane SMBS
Description: Receptor-Binding Assessment Test of Compounds Using Rat Lung Membranes
The assessment test was carried out according to the method of Sugasawa, T. et al., J. Biol. Chem., 272, 21244-21252 (1997).
Preparation of Rat Lung Membranes
Lung taken out from SD male rat (7-week old under test, Charles River Laboratories Japan, Inc.) was removed trachea and blood vessels to shred and washed with iced tris-saline buffer (10 mM tris hydrochloric acid-154 mM sodium chloride, pH7.4). The resultant was homogenized by Hiscotron with ice-cold tris-saline buffer containing a homogenization buffer (1 mM ethylenediaminetetraacetic acid (EDTA), 1 mM 4-(2-aminoethyl)benzenesulfonyl fluoride (AEBSF), 5 μg/ml aprotinin, 5 μg/ml leupeptine) (maximum rate: 1 minute). The supernatant after low-speed centrifugation (1500×g, 20 minutes, 4° C.) was ultracentrifuged (100000×g, 20 minutes, 4° C.), and the pellet was suspended in tris-saline buffer to store at −80° C. The protein concentrations were determined by Bio-Rad Protein Assay Kit using bovine serum albumin (BSA) as a standard.
To each well in protein-nonabsorptive round-bottom 96-well assay plate (commercially available from Iwaki Glass Co., Ltd.) were added tris-saline buffer (200 μl) containing 1 nM [^125I]-iodocyanopindolol (commercially available from Amersham plc), 10 μM serotonine, 20 μm dl-propranolol, 10 μM phentolamine, 1.1 mM ascorbic acid and 100 μg lung membrane, and the mixture was pipetted to combine and then incubated at 37° C. for 30 minutes. The test compounds were dissolved in 100% dimethyl sulfoxide solution, and thereto was added 2 μl (final DMSO concentration: 1%). In order to calculate nonspecific binding amounts, to the mixture was added L-threo-3-(3,4-dihydroxyphenyl)-N-[3-(4-fluorophenyl)propyl]serine pyrrolidine amide at 100 μM of the final concentration as an alternative to the test compounds. During this time, 100 μl of 0.3% polyethyleneimine (PEI)/tris-saline buffer was added to MultiScreen plate (96-well B glass fiber, Millipore Cat. No. MAFB NOB10), and incubated for over 30 minutes. The resultant was filtered with aspiration (aspiration by the addition of 200 μl iced tris-saline buffer) to wash, and the reaction solutions on 96-well assay plate were filtered with aspiration to wash four times on MultiScreen plate. B glass fiber filter paper at the bottom of MultiScreen plate was punched out, and γ-ray doses of [^125I]-iodocyanopindolol trapped on the filter paper were determined as binding amounts. The binding amounts in the presence of DMSO (final concentration: 1%) were total binding amounts, and the binding amounts in the presence of 100 μM L-threo-3-(3,4-dihydroxyphenyl)-N-[3-(4-fluorophenyl)propyl]serine pyrrolidine amide were nonspecific binding amounts. The values subtracted the nonspecific binding amounts from the total binding amounts were the specific binding amounts. The binding activity of a compound was calculated according to the following formula, which was shown in the ratio of inhibiting the specific binding of [^125I]-iodocyanopindolol to rat lung membrane SMBS by the test compound.

[1] = tested on: Corticosterone generation; assay: Assessment test of steroid hormone synthesis inhibition (Corticosterone generation in rat adrenal gland cells); assay type: cell-based; conditions: 10 μM test article, rat adrenal cells with cAMP, 2 hours, read-out: Steroid Synthesis Inhibition Rate (%) (10 μM)
Description: Assessment Test of Steroid Hormone Synthesis Inhibition
• Cell Strainer (BD Falcon®) • Cell Titer-Glo® (Promega) • Collagenase from Clostridium histolyticum (Sigma-Aldrich) • Corticosterone EIA kit (Cayman) • Dimethylsulfoxide (referred to as DMSO hereinafter) (nacalai tesque) • D-MEM (GIBCO) • DNase I (Invitrogen) • Fetal Bovine Serums (referred to as FBS hereinafter) (Bioflud) • Multiple well plates for adhesive cell culture, 96 wells (IWAKI) • N^6,2′-O-Dibutyryladenosine 3′,5′-cyclic monophosphate sodium salt (referred to as cAMP hereinafter) (Sigma) • Penicillin Streptomycin Mixed Solution (nacalai tesque)
Control examples 1 to 4: Control example 1 was Example 350 of Patent Document 2. Control examples 2 to 4 were synthesized according to Patent Document 2.
Adrenal glands were taken out from rats, and removed excess connective tissues, adiposes and membranes in D-MEM. The adrenal glands were transferred to polytubes, and quickly segmentalized with scissors. Thereto was added D-MEM containing 1 mg/mL collagenase and 0.25 μL DNase 1, and then the mixture was shaken at 37° C. for 10 minutes in 80 times/minute. Then, the mixture was pipetted by 1 mL truncated pipette tip, and shaken again under the same condition. After 10 minutes, the mixture was pipetted again by 1 mL pipette tip, and the cell suspension was filtered through metal mesh. The filtrate was centrifuged at 4° C. for 5 minutes in 500 g. The supernatant was removed, and thereto was added a mixed solution of 0.16 M NH4Cl and 0.17 M Tris-HCl in 3 mL. The mixture was let stand on ice for 5 minutes, and then centrifuged under the same condition. Then, the supernatant was removed and then thereto was added D-MEM. The cell suspension was prepared and centrifuged under the same condition. Again, the supernatant was removed and then thereto was added D-MEM to give a cell suspension. The cell suspension was filtered by Cell Strainer (BD Falcon®). The filtrate was centrifuged under the same condition. After the completion of the centrifugation, the supernatant was removed, and thereto was added D-MEM containing 1% Penicillin Streptomycin Mixed Solution and 10% FBS. The mixture was seeded in Multiple well plate for adhesive cell culture, 96 wells (IWAKI) in 10000 cells/well, and incubated at 37° C. overnight in CO2 incubator.
Test article concentrations were prepared in DMSO to 2000 μM, and D-MEM containing 20 μM test article in D-MEM was prepared.
Cell-seeded plate was incubated overnight, and then the medium was removed and thereto was added D-MEM containing 20 μM test article in 50 μL/well. Then, to the mixture was promptly added D-MEM containing 20 μM cAMP in 50 μL/well so that the final concentration of the test article was 10 μM. After the addition of 2 types of D-MEM, the mixture was incubated at 37° C. for 2 hours in CO2 incubator. After 2 hours, the supernatant (50 μL) of the medium was collected. For cells, the cell toxicity of the test article was assessed according to a conventional method using Cell Titer-Glo® (Promega). For the collected supernatant, the Corticosterone concentration in the supernatant was determined according to a conventional method using Corticosterone EIA kit (Cayman).
The inhibition rate of 10 μM test article to Corticosterone generation was calculated according to the following formula confirming that the cell toxicity by the test article was not recognized.

| Binding Activity (%) (1 μM) (rat lung membrane SMBS) | melting point | Structure (SMILES) | inhibition at 10 µM [1] |
| --- | --- | --- | --- |
| 82% | – | CNC(=O)NCCn1c(-c2ccc(CN3CCOCC3)c(OC)c2)cs/c1=N\c1ccc(F)c(C)c1 [Example 21, N-{2-[(2Z)-2-[(4-Fluoro-3-methylphenyl)imino]-4-[3-methoxy-4-(morpholin-4-ylmethyl)phenyl]-1,3-thiazol-3(2H)-yl]ethyl}-N′-methylurea] | 8% |
| – | 171 to 174 °C | CNC(=O)NCCn1c(-c2ccc(CN3CCOCC3)cc2C)cs/c1=N\c1ccc(C)c(F)c1 [Example 22] | – |
| – | 119 to 121 °C | CNC(=O)NCCn1c(-c2ccc(CN3CCOCC3)cc2C)cs/c1=N\c1cccc(F)c1 [Example 23] | – |
| – | 154 to 160 °C | CNC(=O)NCCn1c(-c2ccc(CN3CCOCC3)cc2C)cs/c1=N\c1ccc(F)cc1F [Example 25] | – |
| – | 144 to 150 °C | CNC(=O)NCCn1c(-c2ccc(CN3CCOCC3)cc2OC)cs/c1=N\c1ccc(C)c(F)c1 [Example 29] | – |
| – | 161 to 165 °C | CNC(=O)NCCn1c(-c2ccc(CN3CCOCC3)cc2OC)cs/c1=N\c1cccc(F)c1F [Example 30] | – |
| – | 150 to 153 °C | CNC(=O)NCCn1c(-c2ccc(CN3CCOCC3)c(OC)c2)cs/c1=N\c1cccc(F)c1F [Example 32] | – |
| – | 155 to 164 °C | CNC(=O)NCCn1c(-c2ccc(CCN3CCOCC3)cc2)cs/c1=N\c1cccc(F)c1F [Example 46] | – |
| – | 166 to 172 °C | CNC(=O)NCCn1c(-c2ccc(CCN3CCOCC3)cc2)cs/c1=N\c1ccc(F)cc1F [Example 47] | – |
| – | 183 to 186 °C | CCNC(=O)NCCn1c(-c2ccc(C(=O)N3CCOCC3)cc2)cs/c1=N\c1ccc(F)c(C)c1 [Example 53] | – |
| – | 179 to 180 °C | CCNC(=O)NCCn1c(-c2ccc(C(=O)N3CCOCC3)cc2)cs/c1=N\c1ccc(F)cc1F [Example 54] | – |
| – | 172 to 177 °C | CCNC(=O)NCCn1c(-c2ccc(C(=O)N3CCOCC3)cc2)cs/c1=N\c1cccc(F)c1 [Example 57] | – |
| – | 196 to 203 °C | CCNC(=O)NCCn1c(-c2ccc(C(=O)N3CCOCC3)cc2)cs/c1=N\c1ccc(F)c(C)c1 [Example 58] | – |
| – | 170 to 176 °C | CCNC(=O)c1ccc(-c2cs/c(=N\c3cccc(F)c3)n2CCNC(=O)NC)cc1 [Example 60] | – |
| 65% | 180 to 188 °C | CCNC(=O)c1ccc(-c2cs/c(=N\c3ccc(F)c(F)c3)n2CCNC(=O)NC)cc1 [Example 62] | 2% |

Further lines, the compound ahead of its results:

| Structure (SMILES) | Binding Activity (%) (1 μM) (rat lung membrane SMBS) | melting point | inhibition at 10 µM [1] |
| --- | --- | --- | --- |
| CNC(=O)NCCn1c(-c2ccc(CN3CCOCC3)cc2C)cs/c1=N\c1ccc(F)c(C)c1 [Example 18, N-{2-[(2Z)-2-[(4-Fluoro-3-methylphenyl)imino]-4-[2-methyl-4-(morpholin-4-ylmethyl)phenyl]-1,3-thiazol-3(2H)-yl]ethyl}-N′-methylurea] | 88% | – | 28% |
| CNC(=O)NCCn1c(-c2ccc(CN3CCOCC3)cc2C)cs/c1=N\c1ccc(F)cc1C [Example 24] | – | 122 to 125 °C | – |
| CNC(=O)NCCn1c(-c2ccc(CN3CCOCC3)cc2C)cs/c1=N\c1cccc(F)c1F [Example 26] | – | 132 to 135 °C | – |
| CNC(=O)NCCn1c(-c2ccc(CN3CCOCC3)c(C)c2)cs/c1=N\c1cccc(F)c1 [Example 27] | – | 151 to 152 °C | – |
| CNC(=O)NCCn1c(-c2ccc(CN3CCOCC3)cc2OC)cs/c1=N\c1cccc(F)c1 [Example 28] | – | 163 to 166 °C | – |
| CNC(=O)NCCn1c(-c2ccc(CN3CCOCC3)c(OC)c2)cs/c1=N\c1cccc(F)c1 [Example 31] | – | 170 to 174 °C | – |
| CNC(=O)NCCn1c(-c2ccc(CN3CCOCC3)c(OC)c2)cs/c1=N\c1ccc(F)cc1F [Example 33] | – | 164 to 169 °C | – |
| CNC(=O)NCCn1c(-c2ccc(CCN3CCOCC3)cc2)cs/c1=N\c1cccc(F)c1 [Example 45] | – | 154 to 160 °C | – |
| CCNC(=O)NCCn1c(-c2ccc(C(=O)N3CCOCC3)cc2)cs/c1=N\c1ccc(C)c(F)c1 [Example 55] | – | 175 to 178 °C | – |
| CCNC(=O)NCCn1c(-c2ccc(C(=O)N3CCOCC3)cc2)cs/c1=N\c1cccc(Cl)c1 [Example 56] | – | 182 to 186 °C | – |
| CCNC(=O)NCCn1c(-c2ccc(C(=O)N3CCOCC3)cc2)cs/c1=N\c1cccc(Cl)c1 [Example 59] | 66% | 191 to 198 °C | 7% |
| CCNC(=O)c1ccc(-c2cs/c(=N\c3ccc(F)cc3)n2CCNC(=O)NC)cc1 [Example 61] | 62% | 172 to 178 °C | 6% |
| CCNC(=O)c1ccc(-c2cs/c(=N\c3cccc(Cl)c3)n2CCNC(=O)NC)cc1 [Example 63] | – | 185 to 192 °C | – |
| CNC(=O)NCCn1c(-c2ccc(C(=O)NC3CC3)cc2)cs/c1=N\c1cccc(F)c1 [Example 64] | – | 179 to 185 °C | – |
